In patent US20130288275A1, “COMPOSITIONS AND METHODS FOR DETECTING ACETYLATED SUMO PROTEINS” (Georgetown University, priority 2010, published 2013):

Experiments:
[1] = test system: SUMO-1 acetylation; assay: Modulation of SUMO-1 acetylation in H1299 cells expressing SUMO-1; type: cell-based, human; conditions: 500 nM TSA or 1 μM etoposide, versus untreated cells
Method: FIG. 3. SUMO-1 is acetylated when bound to its substrates. A. A polyclonal antibody raised against a SUMO-1 peptide SEIHF{Lys-Ac}[…] acetylated at K37 was raised and purified by peptide affinity purification. The specificity of this antibody was tested first in an in vitro acetylation reaction similar to that described in FIG. 2A. SUMO-1 was incubated in the presence (lane 3) or absence (lane 2) of CBP and cold Acetyl-coenzyme A. Lane 1 contains the acetylation reaction with CBP alone without SUMO-1. Samples were subjected to SDS electrophoresis, blotted on a PDF membrane, and probed with Ac-K37-Ab in immunoblot (upper panel). After chemi-luminescence, the membrane was stained with Comassie Brilliant Blue to reveal SUMO-1 (lower panel). B. Acetylation of SUMO-1 in vivo. Control H1299 cells (lanes 1 and 4) or H1299 expressing naïve SUMO-1 (lanes 2 and 5) or a SUMO-1 harboring lysine to arginine replacements at position K37-K39 and K45-K46-K48 (SUMOK37-K48R, lanes 3 and 6) were induced with tetracycline. […] Following electrophoresis and transfer, membranes were immuno-blotted with the Ac-K37-Ab (left panel, lanes 1-3). Forty micrograms of total cell extracts were probed with the anti-Flag antibody in direct immuno-blot (right panel, lanes 4-6). The position of free SUMO-1 and of SUMO-1 conjugated to RanGap is indicated by arrows. C. Modulation of SUMO-1 acetylation by deacetylases and by DNA damaging agents. H1299 cells expressing SUMO-1 were left untreated (lanes 1 and 5) or they were treated with 500 nM TSA (lanes 2 and 6), with 1 μM etoposide (lanes 3 and 7), or with 100 mM H2O2 (lanes 4 and 8). Cell extracts were prepared in RIPA buffer, immuno-precipitated with the anti-Flag antibody and processed in immuno-blot with the Ac-K37-Ab as described in B (lanes 1-4). Total cell extracts are shown in the right panel. The position of SUMO-1, RanGaP and of SUMO-1 conjugates is indicated. Full arrows indicate non specific reactivity of the Ac-K37-Ab with heavy and light chains of the anti-Flag immuno-precipitation.
Unless otherwise indicated, cell extracts were prepared in RIPA buffer (0.1% SDS; 50 mM Tris.Cl, pH 6.8; 150 mM NaCl; 0.5% Nonidet P-40; 2 mM EDTA) supplemented with protease a protease inhibitor mixture, with TSA (500 μM) and with […] NEM as an inhibitor of de-sumoylation. Treatment with etoposide was performed at […] overnight. When probed with the anti-SUMO or anti-acetyl-K37 antibody (37-1Ab) in direct immuno-blot, membranes where treated with 6 M Guanidine for 30 minutes, followed by incubation in blocking solution. The Ac-K37 (37-1Ab) antibody was used to a 1:500 dilution in direct immuno-blots on in vitro acetylation reactions (i.e., FIG. 3A) and to a 1:250 dilution for the experiments in cells and in murine tumors. […]

[2] = biological target: T1, CBP (Homo sapiens, UniProt Q92793); assay: Peptide competition of CBP-mediated acetylation of full-length SUMO-1; type: biochemical; conditions: cold acetylated peptide in 10 fold excess relatively to full length SUMO-1; 14C-acetyl CoA
T1 construct: purified SUMO-1 protein and the catalytic domain of several acetyltransferases, specifically of CBP and PCAF; purchased Biomol
Method: (§1) FIG. 2. Identification of an acetylated domain of SUMO-1 conserved among SUMO family members. A. Purified SUMO1 was subjected to an in vitro acetylation reaction in the absence (lane 2) or presence (lane 3) of CBP, and of 14C-Acetyl-Coenzyme A. Lane 1 contain CBP in the absence of SUMO-1. Reactions were assembled in 30 μl volume, and developed with autoradiography. 1/20 of the reaction mixtures were run independently and proteins were visualized with Coomassie Brilliant Blue staining (lanes 4-6). The position of SUMO-1 and CBP is indicated by arrows. B. Peptide competition experiments. The following acetylated peptides were used: K25-K27:YIK(Ac)LK(Ac)VIG (lane 2); peptide K37-K39:HFK(Ac)VK(Ac)MTT (lane 3); peptide K45-K46-K48:HLK(Ac)K(Ac)LK(Ac)ES (lane 4). Lane 1 contains the acetylation reaction with a control peptide ([…]) and lane 5 contains the acetylation reaction without peptide(s). Polypeptides were incubated in a 10 fold excess relatively to full length SUMO-1. C. Identification of lysines residues acetylated in vitro and in vivo by mass spectrometry and alignment of acetylated residues in SUMO-1 with SUMO-2 and SUMO-3. Acetylated lysines of SUMO-1 are indicated by arrows and bolded in red, and conserved residues are shown. Based on the results of Mass Spectrometry we name the domain comprised between amino acid K37 to K48 SUMO-1 Acetylated Domain, or SAD. D. Acetylation of SUMO family members. Acetylation reactions were carried out as described in A. SUMO-1 (lanes 2, 5) SUMO-2 (lanes 3, 6), or SUMO-3 (lanes 4, 7) were subjected to an acetylation reaction in absence (lanes 2-4) or presence (lanes 5-7; indicated by +) of CBP. Lane 1 contains an acetylation reaction with CBP without SUMO proteins.
Acetylation reactions were typically assembled in a 30 μl volume, containing HAT buffer (1×25 mM Tris-HCl ph 7.9; 50 mM NaCl, 1 mM DTT), 6 μl of ^14C-Acetyl-Coenzyme A (Amersham) or cold Acetyl-Coenzyme A (lithium salt, from Roche), 1-2 μg CBP, 0.5-1 μg of SUMO proteins. […]

[3] = test system: H1299 cells; assay: Cell cycle analysis by flow cytometry; type: cell-based, human; conditions: H1299 cells infected with adenovirus expressing p53, 72 hours after infection
Method: FIG. 5. […] 72 hours after infection, cells were harvested and their cell cycle profile was analyzed (see materials and methods). B-C.
Flow cytometry was performed as described previously by Knights, C. D., et al. J. Cell Biol. 173(4):533-544 (2006).

[4] = biological target: T1, CBP; assay: In vitro acetylation reaction with CBP; type: biochemical; conditions: purified protein, 14C-acetyl CoA, autoradiography
Method: as §1, with “proteins. […]” for “proteins.”
From the mass spectrometric analysis performed on the in vitro reactions, it was determined that CBP was able to acetylate the same residues that were found acetylated in vivo, specifically K37, K39 and K48. […]

[5] = biological target: T2, PCAF (Homo sapiens, UniProt Q92831); assay: In vitro acetylation reaction with PCAF; type: biochemical; conditions: purified protein, 14C-acetyl CoA
T2 construct: purified SUMO-1 protein and the catalytic domain of several acetyltransferases, specifically of CBP and PCAF
Method: Acetylation reactions were typically assembled in a 30 μl volume, containing HAT buffer (1×25 mM Tris-HCl ph 7.9; 50 mM NaCl, 1 mM DTT), 6 μl of ^14C-Acetyl-Coenzyme A (Amersham) or cold Acetyl-Coenzyme A (lithium salt, from Roche), 1-2 μg CBP, 0.5-1 μg of SUMO proteins.
The discovery of such similarities implied that this SUMO-1 domain might functionally mimic the acetylated state of similar domains of transcription factors. Two approaches were used to determine if the identified SUMO-1 domain was acetylated. First, acetylation assays were performed in vitro using purified SUMO-1 protein and the catalytic domain of several acetyltransferases, specifically of CBP and PCAF, in the presence of 14C-acetyl CoA. […] To preliminarily map the site(s) of acetylation, we tested the ability of cold synthetic polypeptides corresponding to specific SUMO-1 regions, to inhibit CBP-mediated acetylation of the full-length protein in a reaction containing 14C-acetyl CoA.

T1 sequence (Q92793 1323-1700 limits assumed): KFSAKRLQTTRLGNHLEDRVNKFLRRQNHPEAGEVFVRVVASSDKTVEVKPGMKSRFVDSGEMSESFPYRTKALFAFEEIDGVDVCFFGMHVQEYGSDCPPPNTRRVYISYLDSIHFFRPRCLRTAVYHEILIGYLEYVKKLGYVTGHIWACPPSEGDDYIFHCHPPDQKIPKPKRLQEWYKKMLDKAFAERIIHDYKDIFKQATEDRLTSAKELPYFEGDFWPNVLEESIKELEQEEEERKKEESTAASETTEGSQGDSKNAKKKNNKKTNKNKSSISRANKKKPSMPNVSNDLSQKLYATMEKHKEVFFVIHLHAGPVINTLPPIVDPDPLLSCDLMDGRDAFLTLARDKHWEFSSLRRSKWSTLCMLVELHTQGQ
T2 sequence (Q92831 503-651 limits assumed, species assumed): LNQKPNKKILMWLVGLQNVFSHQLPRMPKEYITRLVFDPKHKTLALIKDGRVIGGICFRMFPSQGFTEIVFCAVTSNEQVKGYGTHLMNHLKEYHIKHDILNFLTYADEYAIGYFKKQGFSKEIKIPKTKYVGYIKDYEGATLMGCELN

| Molecule | inhibition of CBP-mediated acetylation of full-length SUMO-1 [2] | acetylation by CBP [4] | other results |
| --- | --- | --- | --- |
| CC(/C=C/C(=O)NO)=C\[C@@H](C)C(=O)c1ccc(N(C)C)cc1 [TSA] |  |  | acetylation signal on free SUMO-1 [1]: stronger than that seen in untreated cells; levels of acetylation on RanGAP [1]: only modestly influenced |
| COc1cc([C@@H]2c3cc4c(cc3[C@@H](O[C@@H]3O[C@@H]5CO[C@@H](C)O[C@H]5[C@H](O)[C@H]3O)[C@H]3COC(=O)[C@H]23)OCO4)cc(OC)c1O [etoposide] |  |  | acetylation signal on free SUMO-1 [1]: stronger than that seen in untreated cells; levels of acetylation on RanGAP [1]: only modestly influenced |
| HFK(Ac)VK(Ac)MTT [K37-K39] | completely blocked acetylation |  |  |
| YIK(Ac)LK(Ac)VIG [K25 and K26] | only weakly abrogated |  |  |

Further lines, with some results ahead:

| inhibition of CBP-mediated acetylation of full-length SUMO-1 [2] | acetylation by CBP [4] | Molecule | other results |
| --- | --- | --- | --- |
| completely blocked acetylation |  | HLK(Ac)K(Ac)LK(Ac)ES [K45-K46-K48] |  |
|  | efficiently acetylated | SUMO-1: small ubiquitin-like modifier protein, SEQ ID NO:1; purified from Biomol or Flag-tagged expressed in H1299 cells | apoptotic cells [3]: 15%; acetylation by PCAF [5]: not by PCAF |
|  | robustly acetylated | SUMO-2: purified SUMO-2 from Biomol, SEQ ID NO:2 |  |
|  | robustly acetylated | SUMO-3: purified SUMO-3 from Biomol, SEQ ID NO:3 |  |
